Experimental data taken from patent publication US20250179061A1 (SIRONAX LTD., priority 2022, published 2025).
Structures can show the parent of a compound that is named as a salt.

The compounds below were run on HT-29 cells (assay: HT-29 necroptosis cell viability assay (TNF-α/SMAC mimetic/zVAD-FMK, CellTiter-Glo)). Conditions: Homo sapiens, HT-29, HT-29 necroptosis cell viability assay; class symbols for IC50; read-out: Activity.
Format: cell-based
Method in brief: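 HT-29 cells (~5,000/well, overnight) in FBS-free McCoy's 5A with TNF-α 10 ng/ml, SMAC mimetic 6 μM and zVAD-FMK 10 μM plus 10-point 1:3 compound titration, 20 h at 37°C. ATP measured by CellTiter-Glo luminescence; IC50 as geometric mean of duplicates.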

`Cc1nn(C2COC2)c(C)c1Oc1ccc(-n2ncn(Cc3c(F)cccc3F)c2=O)cc1F` [Example 177, 4-(2,6-difluorobenzyl)-2-(4-((3,5-dimethyl-1-(oxetan-3-yl)-1H-pyrazol-4-yl)oxy)-3-fluorophenyl)-2,4-dihydro-3H-1,2,4-triazol-3-one] and `Cc1nc(C(N)=O)sc1Oc1ccc(-n2ncn(Cc3c(F)cccc3F)c2=O)cc1F` [Example 559, 5-(4-(4-(2,6-difluorobenzyl)-5-oxo-4,5-dihydro-1H-1,2,4-triazol-1-yl)-2-fluorophenoxy)-4-methylthiazole-2-carboxamide] cannot be ordered by IC50: less than 100 nM for the first, less than 100 nM for the second.

`CCOC1(C)CN(c2nccc(Oc3ccc(-n4ncn(Cc5c(F)cccc5Cl)c4=O)cc3)c2F)C1` [Example 488, 4-(2-chloro-6-fluorobenzyl)-2-(4-((2-(3-ethoxy-3-methylazetidin-1-yl)-3-fluoropyridin-4-yl)oxy)phenyl)-2,4-dihydro-3H-1,2,4-triazol-3-one] and `Cc1nc(C2CCN(C)C2)sc1Oc1ccc(-n2ncn(Cc3c(F)cccc3F)c2=O)cc1` (stereo not drawn) [Example 554, 4-(2,6-difluorobenzyl)-2-(4-((4-methyl-2-(1-methylpyrrolidin-3-yl)thiazol-5-yl)oxy)phenyl)-2,4-dihydro-3H-1,2,4-triazol-3-one] cannot be ordered by IC50: less than 100 nM for the first, less than 100 nM for the second.

`Cn1nc(C(C)(C)O)cc1Oc1ccc(-n2ncn(Cc3c(F)cccc3F)c2=O)cc1F` [Example 134, 4-(2,6-difluorobenzyl)-2-(3-fluoro-4-((3-(2-hydroxypropan-2-yl)-1-methyl-1H-pyrazol-5-yl)oxy)phenyl)-2,4-dihydro-3H-1,2,4-triazol-3-one] and `O=c1n(Cc2c(F)cccc2F)cnn1-c1ccc(Oc2ncsc2C(F)F)c(F)c1` [Example 152, 4-(2,6-difluorobenzyl)-2-(4-((5-(difluoromethyl)thiazol-4-yl)oxy)-3-fluorophenyl)-2,4-dihydro-3H-1,2,4-triazol-3-one] cannot be ordered by IC50: less than 100 nM for the first, less than 100 nM for the second.

`O=c1n(Cc2c(F)cccc2F)cnn1-c1ccc(Oc2scnc2CO)c(F)c1` [Example 145, 4-(2,6-difluorobenzyl)-2-(3-fluoro-4-((4-(hydroxymethyl)thiazol-5-yl)oxy)phenyl)-2,4-dihydro-3H-1,2,4-triazol-3-one] and `Cc1cn(Cc2ccc(-n3nc4n(c3=O)C(c3ccccc3)CC4)cc2F)c(C)n1` (stereo not drawn) [Example 213, 2-(4-((2,4-dimethyl-1H-imidazol-1-yl)methyl)-3-fluorophenyl)-5-phenyl-2,5,6,7-tetrahydro-3H-pyrrolo[2,1-c][1,2,4]triazol-3-one] cannot be ordered by IC50: less than 100 nM for the first, less than 100 nM for the second.

Same assay, conditions: Homo sapiens, HT-29, HT-29 necroptosis cell viability, IC50 class symbols; read-out: Activity

`O=c1n(Cc2c(F)cccc2F)cnn1-c1ccc(Oc2cc(N3CC4(CCN4)C3)ncc2Cl)c(F)c1` [Example 411, 2-(4-((5-chloro-2-(1,6-diazaspiro[3.3]heptan-6-yl)pyridin-4-yl)oxy)-3-fluorophenyl)-4-(2,6-difluorobenzyl)-2,4-dihydro-3H-1,2,4-triazol-3-one hydrochloride] and `C[C@H]1C[C@@H](N)CN1c1cc(Oc2ccc(-n3ncn(Cc4c(F)cccc4F)c3=O)cc2F)c(Cl)cn1` [Example 413, 2-(4-((2-((2S,4R)-4-amino-2-methylpyrrolidin-1-yl)-5-chloropyridin-4-yl)oxy)-3-fluorophenyl)-4-(2,6-difluorobenzyl)-2,4-dihydro-3H-1,2,4-triazol-3-one] cannot be ordered by IC50: less than 100 nM for the first, less than 100 nM for the second.

First: O=c1n(Cc2c(F)cccc2F)cnn1-c1ccc(Oc2ccnc(N3CC4(CCNCC4)C3)c2)cc1 [Example 380, 2-[4-[[2-(2,7-diazaspiro[3.5]nonan-2-yl)-4-pyridyl]oxy]phenyl]-4-[(2,6-difluorophenyl)methyl]-1,2,4-triazol-3-one]
Second: O=c1n(Cc2c(F)cccc2F)cnn1-c1ccc(Oc2ccnc(N3CCC4(COC4)C3)c2)cc1 [Example 333, 2-(4-((2-(2-oxa-6-azaspiro[3.4]octan-6-yl)pyridin-4-yl)oxy)phenyl)-4-(2,6-difluorobenzyl)-2,4-dihydro-3H-1,2,4-triazol-3-one]
The IC50 of the first is higher: 100 to 1000 nM for the first, less than 100 nM for the second. The second is the more potent here.

`COC1(C#N)CN(c2cc(Oc3ccc(-n4ncn(Cc5c(F)cccc5F)c4=O)cc3F)ccn2)C1` [Example 367, 1-(4-(4-(4-(2,6-difluorobenzyl)-5-oxo-4,5-dihydro-1H-1,2,4-triazol-1-yl)-2-fluorophenoxy)pyridin-2-yl)-3-methoxyazetidine-3-carbonitrile] and `COC1(C#N)CN(c2cc(Oc3ccc(-n4ncn(Cc5c(F)cccc5F)c4=O)cc3F)c(F)cn2)C1` [Example 230, 1-(4-(4-(4-(2,6-difluorobenzyl)-5-oxo-4,5-dihydro-1H-1,2,4-triazol-1-yl)-2-fluorophenoxy)-5-fluoropyridin-2-yl)-3-methoxyazetidine-3-carbonitrile] cannot be ordered by IC50: less than 100 nM for the first, less than 100 nM for the second.

`CCOC1CN(c2nccc(Oc3ccc(-n4ncn(Cc5c(F)cccc5F)c4=O)cc3F)c2F)C1` [Example 363, 4-(2,6-difluorobenzyl)-2-(4-((2-(3-ethoxyazetidin-1-yl)-3-fluoropyridin-4-yl)oxy)-3-fluorophenyl)-2,4-dihydro-3H-1,2,4-triazol-3-one] and `C[C@H]1[C@@H](O)CN1c1cc(Oc2ccc(-n3ncn(Cc4c(F)cccc4F)c3=O)cc2F)c(F)cn1` [Example 448, 4-(2,6-difluorobenzyl)-2-(3-fluoro-4-((5-fluoro-2-((2S,3S)-3-hydroxy-2-methylazetidin-1-yl)pyridin-4-yl)oxy)phenyl)-2,4-dihydro-3H-1,2,4-triazol-3-one] cannot be ordered by IC50: less than 100 nM for the first, less than 100 nM for the second.

First: O=c1n(Cc2c(F)cccc2F)cnn1-c1ccc(Oc2ccnc(N3CCC34COC4)c2)cc1 [Example 245, 2-(4-((2-(6-oxa-1-azaspiro[3.3]heptan-1-yl)pyridin-4-yl)oxy)phenyl)-4-(2,6-difluorobenzyl)-2,4-dihydro-3H-1,2,4-triazol-3-one]
Second: O=c1n(Cc2c(F)cccc2F)cnn1-c1ccc(Oc2ccnc(N3CC4(CCCCO4)C3)c2)cc1 [Example 334, 2-(4-((2-(5-oxa-2-azaspiro[3.5]nonan-2-yl)pyridin-4-yl)oxy)phenyl)-4-(2,6-difluorobenzyl)-2,4-dihydro-3H-1,2,4-triazol-3-one]
The IC50 of the first is higher: 100 to 1000 nM for the first, less than 100 nM for the second.

`C[C@H]1C[C@@H](C#N)CN1c1cc(Oc2ccc(-n3ncn(Cc4c(F)cccc4F)c3=O)cc2F)c(Cl)cn1` [Example 240, (3R,5S)-1-(5-chloro-4-(4-(4-(2,6-difluorobenzyl)-5-oxo-4,5-dihydro-1H-1,2,4-triazol-1-yl)-2-fluorophenoxy)pyridin-2-yl)-5-methylpyrrolidine-3-carbonitrile] and `N#Cc1cc(Oc2ccc(-n3ncn(Cc4c(F)cccc4F)c3=O)cc2F)c(Cl)cn1` [Example 406, 5-chloro-4-(4-(4-(2,6-difluorobenzyl)-5-oxo-4,5-dihydro-1H-1,2,4-triazol-1-yl)-2-fluorophenoxy)picolinonitrile] cannot be ordered by IC50: less than 100 nM for the first, less than 100 nM for the second.

First: O=c1n(Cc2c(F)cccc2F)cnn1-c1ccc(Oc2ccnc(NC3(C(F)(F)F)CC3)c2F)cc1 [Example 362, 4-(2,6-difluorobenzyl)-2-(4-((3-fluoro-2-((1-(trifluoromethyl)cyclopropyl)amino)pyridin-4-yl)oxy)phenyl)-2,4-dihydro-3H-1,2,4-triazol-3-one]
Second: CC(C)(C)CNc1cc(Oc2ccc(-n3ncn(Cc4c(F)cccc4F)c3=O)cc2)ccn1 [Example 386, 4-(2,6-difluorobenzyl)-2-(4-((2-(neopentylamino)pyridin-4-yl)oxy)phenyl)-2,4-dihydro-3H-1,2,4-triazol-3-one]
The IC50 of the first is higher: 1000 to 10000 nM for the first, less than 100 nM for the second. The second is the more potent here.

`Cc1nc(CC2CNC2)sc1Oc1ccc(-n2ncn(Cc3c(F)cccc3F)c2=O)cc1` [Example 312, 2-(4-((2-(azetidin-3-ylmethyl)-4-methylthiazol-5-yl)oxy)phenyl)-4-(2,6-difluorobenzyl)-2,4-dihydro-3H-1,2,4-triazol-3-one] and `Cc1nc(N2CC(C)(N)C2)sc1Oc1ccc(-n2ncn(Cc3c(F)cccc3F)c2=O)cc1` [Example 390, 2-(4-((2-(3-amino-3-methylazetidin-1-yl)-4-methylthiazol-5-yl)oxy)phenyl)-4-(2,6-difluorobenzyl)-2,4-dihydro-3H-1,2,4-triazol-3-one] cannot be ordered by IC50: less than 100 nM for the first, less than 100 nM for the second.

First: N#Cc1ccc(Oc2ccc(-n3ncn(Cc4c(F)cccc4F)c3=O)cc2)cc1 [Example 435, 4-(4-(4-(2,6-difluorobenzyl)-5-oxo-4,5-dihydro-1H-1,2,4-triazol-1-yl)phenoxy)benzonitrile]
Second: CC1(C#N)CN(c2cc(Oc3ccc(-n4nc5n(c4=O)C(c4ccccc4)CC5)cc3F)c(F)cn2)C1 (stereo not drawn) [Example 292, 1-(5-fluoro-4-(2-fluoro-4-(3-oxo-5-phenyl-6,7-dihydro-3H-pyrrolo[2,1-c][1,2,4]triazol-2(5H)-yl)phenoxy)pyridin-2-yl)-3-methylazetidine-3-carbonitrile]
The IC50 of the first is higher: 100 to 1000 nM for the first, less than 100 nM for the second.

Same assay, conditions: Homo sapiens; HT-29 cells stimulated with TNF-α (10 ng/ml), SMAC mimetic (6 μM) and zVAD-FMK (10 μM); 20 hours; CellTiter-Glo ATP luminescence; geometric mean IC50 from 10 points; read-out: Activity

Compared with `Cc1nc(C2CN(C(=O)OC(C)(C)C)C2)sc1Oc1ccc(-n2ncn(Cc3c(F)cccc3F)c2=O)cc1F` [Example 41, tert-butyl 3-(5-(4-(4-(2,6-difluorobenzyl)-5-oxo-4,5-dihydro-1H-1,2,4-triazol-1-yl)-2-fluorophenoxy)-4-methylthiazol-2-yl)azetidine-1-carboxylate], `Cc1cccnc1Cn1cnn(-c2ccc(Oc3sc(C(N)=O)nc3C)c(F)c2)c1=O` [Example 26, 5-(2-fluoro-4-(4-((3-methylpyridin-2-yl)methyl)-5-oxo-4,5-dihydro-1H-1,2,4-triazol-1-yl)phenoxy)-4-methylthiazole-2-carboxamide] is higher in IC50: less than 100 nM for the first, 100 to 1000 nM for the second. The first is the more potent here.

First: Cn1ncc([N+](=O)[O-])c1Oc1ccc(-n2ncn(Cc3c(F)cccc3F)c2=O)cc1 [Example 95, 4-(2,6-difluorobenzyl)-2-(4-((1-methyl-4-nitro-1H-pyrazol-5-yl)oxy)phenyl)-2,4-dihydro-3H-1,2,4-triazol-3-one]
Second: Cc1nc(C(N)=O)sc1Oc1ccc(-n2nc3n(c2=O)[C@H](c2ccccc2)CC3)cc1F (single isomer, unassigned) [Example 14]
The IC50 of the first is higher: 100 to 1000 nM for the first, less than 100 nM for the second.
